Where two headings read alike, the source gives them in different places.
Experiments:
IDO1 = molecular target: T1, IDO1 (Homo sapiens, UniProt P14902); test: IDO1 enzymatic assay; type: biochemical; conditions: for IC50: mean ± SD of at least two independent assays
T1 construct: No. 20160706
Description: (1) Prepare 100× compound of the final desired highest inhibitor concentration in reaction by 100% DMSO. For example, if compounds test at 10 μM, then prepare 1 mM of compound solution in this step. Then dilute compound with DMSO in 3-fold mode to obtain different concentrations. Mark as source plate. (2) Add 100 μL of 100% DMSO to column 1 and column 12 for background control and no compound high control respectively.
Transfer 2 μL of each well from the 96-well source plate to a 96-well assay plate.
• (3) Enzyme Reaction • Prepare 2× enzyme solution. Add IDO-1 in assay buffer. • Prepare 2× substrate solution. Add L-tryptophan, ascorbate, methylene blue, catalase in the assay buffer. • Assay plate already contains 2 μL of compound in 100% DMSO. • Transfer 2× enzyme solution to the assay plate. Add 100 μL of 2× enzyme solution to each well of the 96-well assay plate. • Incubate at room temperature for 10 min. • Transfer […] to each well of the 96-well assay plate. • Read OD321 kinetically by Spectramax (Molecular Devices, LLC, San Jose, CA, USA). • (4) Curve Fitting • Copy data from Spectramax program. Percent inhibition = (max-conversion)/(max − min) × 100. “max” stands for high control; “min” stands for low control. • Fit the data in XL-Fit to obtain IC50 values. Equation used is: Y = Bottom + (Top − Bottom)/(1 + 10^((LogIC50 − X) × Hill Slope)

HDAC1 = molecular target: T2, HDAC1 (Homo sapiens, UniProt Q13547); test: HDAC enzymatic assay; type: biochemical; conditions: mean ± SD of at least two independent assays
T2 construct: purchased BPS Bioscience Inc. 50051
Description: • (1) Prepare 1× assay buffer (modified Tris Buffer). • (2) Compound serial dilution: Transfer compounds to assay plate by Echo in 100% DMSO. The final fraction of DMSO is 1%. • (3) Prepare enzyme solution in 1× assay buffer. • (4) Add trypsin and Ac-peptide substrate in 1× assay buffer to make the substrate solution. • (5) Transfer 15 μL of enzyme solution to assay plate or for low control transfer 15 μL of 1× assay buffer. • (6) Incubate at room temperature for 15 min. • (7) Add 10 μL of substrate solution to each well to start reaction. • (8) Incubate at room temperature for 60 min. • (9) Read the plate on Synergy MX with excitation at 355 nm and emission at 460 nm. • (10) Curve fitting: Fit the data in Excel to obtain inhibition values using Equation (1).
Inh% = (Max − Signal)/(Max − Min) × 100(1)
Fit the data in XL-Fit to obtain IC50 values using Equation (2); Y = Bottom + (Top − Bottom)/(1 + 10^((LogIC50 − X) × Hill Slope))(2)
Y is %inhibition and X is compound concentration.

A549 cell line = test: Anti-proliferation assay in A549 cell line (CellTiter-Glo); type: cell-based; conditions: Homo sapiens; A549 cells, 48 h, CTG assay
Description: Cell viability was measured by the CellTiter-Glo Luminescent (CTG) assay. A549 cells (ATCC, Cat. No.CCL-185) were seeded (2000 cells/well) in 96-well plates and cells were left to incubate at 37 °C for 24 h. After 24 h, prepare compounds with 5-fold dilution in DMSO to the compound plate (200-fold of the final concentration) and transfer 5 μL from the compound plate to 95 μL intermediate medium in the intermediate plate (10-fold of the final concentration). Then transfer 10 μL from the intermediate plate to the cell plates. The final DMSO is 0.5%. After continuing to incubate for 48 h, add 50 μL CTG reagent to each well and read luminescence according to CTG product manual.

[1] = 10 μM, Tables 2 and 3, read-out: IDO1 % Inhibition at 10 μM (converted)
[2] = 10 μM, Table 1 natural products, read-out: IDO1 Inhibition @ 10 μM (%)
[3] = 10 μM, Table 1 natural products

T2 sequence (Q13547 whole entry): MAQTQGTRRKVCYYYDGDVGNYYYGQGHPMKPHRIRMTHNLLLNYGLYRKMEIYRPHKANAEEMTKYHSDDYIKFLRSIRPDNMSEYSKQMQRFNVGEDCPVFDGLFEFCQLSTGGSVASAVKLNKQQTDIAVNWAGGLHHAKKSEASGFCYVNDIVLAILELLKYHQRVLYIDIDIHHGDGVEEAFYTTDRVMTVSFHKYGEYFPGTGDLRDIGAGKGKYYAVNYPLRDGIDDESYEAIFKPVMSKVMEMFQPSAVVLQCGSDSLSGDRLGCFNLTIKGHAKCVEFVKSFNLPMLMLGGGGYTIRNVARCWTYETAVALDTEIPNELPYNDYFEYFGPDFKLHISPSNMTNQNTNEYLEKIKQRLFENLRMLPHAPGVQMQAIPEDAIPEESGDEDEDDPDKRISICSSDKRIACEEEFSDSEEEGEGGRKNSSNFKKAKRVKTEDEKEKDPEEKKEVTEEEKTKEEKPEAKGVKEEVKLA
T1 sequence (P14902 whole entry): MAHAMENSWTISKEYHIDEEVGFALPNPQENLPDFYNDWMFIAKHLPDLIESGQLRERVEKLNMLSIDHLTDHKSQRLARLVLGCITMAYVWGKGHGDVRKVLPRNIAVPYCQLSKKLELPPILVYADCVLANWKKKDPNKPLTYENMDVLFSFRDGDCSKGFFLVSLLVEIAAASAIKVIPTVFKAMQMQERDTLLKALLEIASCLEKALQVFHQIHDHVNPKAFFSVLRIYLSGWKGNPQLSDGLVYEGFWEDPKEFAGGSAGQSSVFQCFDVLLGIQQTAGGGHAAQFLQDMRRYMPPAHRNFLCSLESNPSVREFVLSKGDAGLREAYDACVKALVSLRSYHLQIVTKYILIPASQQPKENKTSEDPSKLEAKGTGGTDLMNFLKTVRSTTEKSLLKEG

| inhibition at 10 µM (IDO1; [1]) | IC50 (A549 cell line) | inhibition at 10 µM (IDO1; [2]) | SMILES | other results |
| --- | --- | --- | --- | --- |
| – | – | 30% | CC(C)=CCCc1c(C)ccc2c1C(=O)C(O)=C(C(C)C)C2=O [Compound 14] | – |
| – | – | 65% | Cc1coc2c1C(=O)C(=O)c1c-2ccc2c(C)cccc12 [Compound 4] | – |
| – | – | 2% | Cc1ccc2c(c1CCCC(C)(C)O)C(=O)C(O)=C(C(C)C)C2=O [Compound 11] | IDO1 Inhibition @ 10 μM (%) (IDO1; [3]): almost lost their activity |
| 78% | 14.5 µM | – | Cc1ccc2c(c1CCC(N)=O)C(=O)C(=O)C(C(C)C)=C2 [Compound 19, 3-(6-Isopropyl-2-methyl-7,8-dioxo-7,8-dihydro-naphthalen-1-yl)propanamide] | IC50 (IDO1): 510 ± 40 nM |
| 90% | > 20 µM | – | Cc1ccc2c(c1CCC(=O)NCCCCC(=O)Nc1ccccc1N)C(=O)C(=O)C(C(C)C)=C2 [Compound 33c, N-(2-Aminophenyl)-5-(3-(6-isopropyl-2-methyl-7,8-dioxo-7,8-dihydronaphthalen-1-yl)propanamido)-pentanamide] | IC50 (IDO1): 550 ± 20 nM; IC50 (HDAC1): 39.5 ± 0.74 µM |
| 66% | > 20 µM | – | COc1ccc(NC(=O)CCc2c(C)ccc3c2C(=O)C(=O)C(C(C)C)=C3)cc1 [Compound 21e, 3-(6-Isopropyl-2-methyl-7,8-dioxo-7,8-dihydronaphthalen-1-yl)-N-(4-methoxyphenyl)propanamide] | – |
| – | – | 3% | CC(C)C1=C(O)C(=O)C23OC2(C(=O)CC2C(C)(C)CCCC23C)C1=O (stereo not drawn) [Compound 15] | IDO1 Inhibition @ 10 μM (%) (IDO1; [3]): almost lost their activity |
| 79% | > 20 µM | – | Cc1ccc2c(c1CCC(=O)NCc1c[nH]c3ccccc13)C(=O)C(=O)C(C(C)C)=C2 [Compound 21f, N-((1H-indol-3-yl)methyl)-3-(6-isopropyl-2-methyl-7,8-dioxo-7,8-dihydronaphthalen-1-yl)propanamide] | – |
| 85% | 9.97 µM | 85% | CC(C)=CCCc1c(C)ccc2c1C(=O)C(=O)C(C(C)C)=C2 [Compound 1, saprorthoquinone] | IC50 (IDO1): 1760 ± 270 nM |
| – | – | 13% | Cc1cccc2c3c(ccc12)C(=O)C(C(C)C)=C(O)C3=O [Compound 12] | – |
| 90% | 12.8 µM | – | Cc1ccc2c(c1CCC(O)C(C)(C)O)C(=O)C(=O)C(C(C)C)=C2 (stereo not drawn) [Compound 17, 8-(3,4-Dihydroxy-4-methylpentyl)-3-isopropyl-7-methylnaphthalene-1,2-dione] | IC50 (IDO1): 740 ± 150 nM |
| 87% | 15.5 µM | – | CCS(=O)(=O)OCCCc1c(C)ccc2c1C(=O)C(=O)C(C(C)C)=C2 [Compound 24b, 3-(6-Isopropyl-2-methyl-7,8-dioxo-7,8-dihydronaphthalen-1-yl)propyl ethanesulfonate] | – |
| 80% | 13.1 µM | – | Cc1ccc2c(c1CCC(=O)Nc1cccc(F)c1)C(=O)C(=O)C(C(C)C)=C2 [Compound 21a, N-(3-Fluorophenyl)-3-(6-isopropyl-2-methyl-7,8-dioxo-7,8-dihydronaphthalen-1-yl)propanamide] | IC50 (IDO1): 1330 ± 10 nM |
| 64% | 14.8 µM | – | Cc1ccc2c(c1CCC(=O)Nc1ccc(F)cc1)C(=O)C(=O)C(C(C)C)=C2 [Compound 21b, N-(4-Fluorophenyl)-3-(6-isopropyl-2-methyl-7,8-dioxo-7,8-dihydronaphthalen-1-yl)propanamide] | – |
| 86% | > 20 µM | – | Cc1ccc2c(c1CCC(=O)O)C(=O)C(=O)C(C(C)C)=C2 [Compound 18, 3-(6-Isopropyl-2-methyl-7,8-dioxo-7,8-dihydronaphthalen-1-yl)propanoic acid] | IC50 (IDO1): 990 ± 240 nM |
| 74% | 12.2 µM | – | Cc1ccc2c(c1CCC(=O)NCc1cn(C)c3ccccc13)C(=O)C(=O)C(C(C)C)=C2 [Compound 21g, 3-(6-Isopropyl-2-methyl-7,8-dioxo-7,8-dihydronaphthalen-1-yl)-N-((1-methyl-1H-indol-3-yl)methyl)-propanamide] | – |
| 91% | 11.8 µM | – | Cc1ccc2c(c1CCCOS(C)(=O)=O)C(=O)C(=O)C(C(C)C)=C2 [Compound 24a, 3-(6-Isopropyl-2-methyl-7,8-dioxo-7,8-dihydronaphthalen-1-yl)propyl methanesulfonate] | IC50 (IDO1): 720 ± 130 nM |

More lines, now with the values behind:

| SMILES | inhibition at 10 µM (IDO1; [1]) | IC50 (A549 cell line) | inhibition at 10 µM (IDO1; [2]) | other results |
| --- | --- | --- | --- | --- |
| Cc1ccc2c(c1CCC(=O)NCCCCCC(=O)Nc1ccccc1N)C(=O)C(=O)C(C(C)C)=C2 [Compound 33d, N-(2-Aminophenyl)-6-(3-(6-isopropyl-2-methyl-7,8-dioxo-7,8-dihydronaphthalen-1-yl)propanamido) hexanamide] | 82% | > 20 µM | – | IC50 (IDO1): 710 ± 30 nM; IC50 (HDAC1): 0.46 ± 0.07 µM |
| Cc1ccc2c(c1CCC(=O)C(C)C)C(=O)C(=O)C(C(C)C)=C2 [Compound 7] | – | – | 86% | – |
| Cc1ccc2c(c1CCC(=O)Nc1ccc(C(F)(F)F)cc1)C(=O)C(=O)C(C(C)C)=C2 [Compound 21c, 3-(6-Isopropyl-2-methyl-7,8-dioxo-7,8-dihydronaphthalen-1-yl)-N-(4-(trifluoromethyl)phenyl)propanamide] | 64% | 7.49 µM | – | – |
| Cc1ccc2c(c1CCCOS(N)(=O)=O)C(=O)C(=O)C(C(C)C)=C2 [Compound 24c, 3-(6-Isopropyl-2-methyl-7,8-dioxo-7,8-dihydronaphthalen-1-yl)propyl sulfamate] | 86% | 11.1 µM | – | – |
| Cc1ccc2c(c1CCC(=O)NCCC(=O)Nc1ccccc1N)C(=O)C(=O)C(C(C)C)=C2 [Compound 33a, N-(2-aminophenyl)-3-(3-(6-isopropyl-2-methyl-7,8-dioxo-7,8-dihydronaphthalen-1-yl)propanamido)-propanamide] | 89% | > 20 µM | – | IC50 (HDAC1): > 100 µM |
| CC(C)C1=C(O)C(=O)C2=C(CC[C@H]3C(C)(C)CCC[C@]23C)C1=O [Compound 10] | – | – | 2% | IDO1 Inhibition @ 10 μM (%) (IDO1; [3]): almost lost their activity |
| Cc1ccc2c(c1/C=C\C(=O)C(C)(C)O)C(=O)C(O)=C(C(C)C)C2=O [Compound 16] | – | – | 3% | IDO1 Inhibition @ 10 μM (%) (IDO1; [3]): almost lost their activity |
| Cc1ccc2c(c1CCC(=O)Nc1ccc(F)c(Br)c1)C(=O)C(=O)C(C(C)C)=C2 [Compound 21d, N-(3-Bromo-4-fluorophenyl)-3-(6-isopropyl-2-methyl-7,8-dioxo-7,8-dihydronaphthalen-1-yl)propanamide] | 65% | 9.31 µM | – | – |
| Cc1ccc2c(c1CCC(=O)Nc1cc(F)ccc1N)C(=O)C(=O)C(C(C)C)=C2 [Compound 27b, N-(2-Amino-5-fluorophenyl)-3-(6-isopropyl-2-methyl-7,8-dioxo-7,8-dihydronaphthalen-1-yl)propanamide] | 84% | 9.51 µM | – | IC50 (HDAC1): > 100 µM |
| COC(=O)[C@@]1(C)CCCc2c1ccc1c2C(=O)C(=O)C2=C1OCC2C (stereo partly drawn) [Compound 9] | – | – | 61% | – |
| Cc1ccc2c(c1C(=O)CCC(C)(C)O)C(=O)C(=O)C(C(C)C)=C2 [Compound 8] | – | – | 73% | – |
| CC(C)C1=CC(=O)C([C@@]2(C)CCCC(C)(C)[C@@H]2CC=O)=CC1=O [Compound 13] | – | – | 6% | – |
| CC1COC2=C1C(=O)C(=O)c1c2ccc2c1CCCC2(C)C (stereo not drawn) [Compound 6] | – | – | 66% | – |
| CC(C)C1=Cc2ccc3c(c2C(=O)C1=O)CCCC3(C)C [Compound 5] | – | – | – | inhibition at 10 µM (IDO1; read-out: IDO1 Inhibition @ 10 μM (%)): 81% |
